# What was measured:
# PI3Kα (p110α/p85α) = molecular target: T1, PI3Kα (p110α/p85α) (Homo sapiens, UniProt P42336); test: PI3Kα ADP-Glo assay; assay type: biochemical; settings: 20 μM PIP2, 10 μM ATP, 30 minutes
# T1 construct: GST (N); made in house; host or cells: Baculovirus-infected Sf9 cells
# Procedure: (A) an In Vitro Assay which Determines the Ability of a Test Compound to Inhibit PI3Kα.
# Activity of PI3Kα was measured using ADP-Glo assay from Promega. PI3Kα, a complex of N-terminal GST-tagged recombinant full-length human p110α (GenBank, Accession No. U79143) and N-terminal His tagged recombinant full length human p85a (GenBank Accession No. XM—043865) were co-expressed in a Baculovirus infected Sf9 cell expression system. The ADP-Glo assay was performed to measure the amount of ADP generated from ATP hydrolysis coupled with PIP2 phosphorylation by the purified recombinant PI3Kα (p110α/p85α). PI3Kα was incubated with 20 μM PIP2 substrate in the reaction buffer (50 mM HEPES, pH 7.4, 150 mM NaCl, 5 mM MgCl2, 1 mM DTT, 3 uM Naorthovanadate, 10 μM ATP and 0.5% DMSO) for 30 minutes at room temperature. The ADP generated was then detected by ADP-Glo assay from Promega, a luminescent ADP detection assay. The ADP-Glo assay is performed in two steps; first, after the kinase reaction, ADP-Glo Reagent is added to terminate the kinase reaction and deplete the remaining ATP. Second, the Kinase Detection Reagent is added to simultaneously convert ADP to ATP and allow the newly synthesized ATP to be measured using a luciferase/luciferin reaction.
# [1] = system: HDACs (HeLa cell nuclear extracts); test: HDAC enzymatic activity, Biomol Color de Lys system; assay type: biochemical; settings: 1 hour, 25° C.
# Procedure: (E) an In Vitro Assay which Determines the Ability of a Test Compound to Inhibit HDAC Enzymatic Activity.
# HDAC inhibitory activity was assessed using the Biomol Color de Lys system (AK-500, Biomol, Plymouth Meeting, Pa.). Briefly, HeLa cell nuclear extracts were used as a source of HDACs. Different concentrations of test compounds were serially diluted in dimethylsulphoxide (DMSO) and added to HeLa cell nuclear extracts in the presence of a colorimetric artificial substrate. Final assay condition contained 50 mM Tris/Cl, pH 8.0, 137 mM NaCl, 2.7 mM KCl and 1 mM MgCl2. Reactions were carried in room temperature (25° C.) for 1 hour before addition of developer for termination. Relative enzyme activity was measured in the WALLAC Victor II 1420 microplate reader as fluorescence intensity (excitation: 350-380 nm; emission: 440-460 nm). Data were analyzed using GraphPad Prism (v4.0a) with a sigmoidal dose response curve fitting for IC50 calculation.
# T1 sequence (P42336 whole entry): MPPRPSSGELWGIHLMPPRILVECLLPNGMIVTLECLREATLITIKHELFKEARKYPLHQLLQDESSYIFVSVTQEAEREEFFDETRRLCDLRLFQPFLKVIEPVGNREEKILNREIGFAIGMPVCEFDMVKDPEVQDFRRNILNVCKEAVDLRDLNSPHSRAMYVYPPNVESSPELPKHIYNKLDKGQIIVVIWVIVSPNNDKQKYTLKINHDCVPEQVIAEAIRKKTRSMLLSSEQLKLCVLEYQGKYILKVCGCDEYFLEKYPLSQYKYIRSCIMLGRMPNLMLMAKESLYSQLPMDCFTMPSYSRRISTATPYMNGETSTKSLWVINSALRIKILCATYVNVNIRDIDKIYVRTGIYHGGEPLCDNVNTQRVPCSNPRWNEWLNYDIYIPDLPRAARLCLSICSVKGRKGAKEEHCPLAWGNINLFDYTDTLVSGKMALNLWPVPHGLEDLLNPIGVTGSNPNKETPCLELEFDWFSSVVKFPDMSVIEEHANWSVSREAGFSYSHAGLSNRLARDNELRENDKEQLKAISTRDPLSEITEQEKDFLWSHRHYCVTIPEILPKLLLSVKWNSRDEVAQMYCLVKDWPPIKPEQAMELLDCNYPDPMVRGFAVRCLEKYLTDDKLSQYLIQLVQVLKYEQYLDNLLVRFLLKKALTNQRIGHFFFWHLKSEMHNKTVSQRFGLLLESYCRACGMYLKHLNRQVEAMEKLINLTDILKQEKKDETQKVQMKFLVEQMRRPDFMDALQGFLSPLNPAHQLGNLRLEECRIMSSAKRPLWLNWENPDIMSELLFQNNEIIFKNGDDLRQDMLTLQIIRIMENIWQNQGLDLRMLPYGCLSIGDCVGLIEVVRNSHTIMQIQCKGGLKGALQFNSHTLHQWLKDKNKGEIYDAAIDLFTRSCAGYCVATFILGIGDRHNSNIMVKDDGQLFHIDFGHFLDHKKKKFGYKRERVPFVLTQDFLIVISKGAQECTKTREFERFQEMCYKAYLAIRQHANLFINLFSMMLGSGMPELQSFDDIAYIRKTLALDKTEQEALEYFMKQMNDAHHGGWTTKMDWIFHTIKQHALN
# T1 sequence (P27986 whole entry partner): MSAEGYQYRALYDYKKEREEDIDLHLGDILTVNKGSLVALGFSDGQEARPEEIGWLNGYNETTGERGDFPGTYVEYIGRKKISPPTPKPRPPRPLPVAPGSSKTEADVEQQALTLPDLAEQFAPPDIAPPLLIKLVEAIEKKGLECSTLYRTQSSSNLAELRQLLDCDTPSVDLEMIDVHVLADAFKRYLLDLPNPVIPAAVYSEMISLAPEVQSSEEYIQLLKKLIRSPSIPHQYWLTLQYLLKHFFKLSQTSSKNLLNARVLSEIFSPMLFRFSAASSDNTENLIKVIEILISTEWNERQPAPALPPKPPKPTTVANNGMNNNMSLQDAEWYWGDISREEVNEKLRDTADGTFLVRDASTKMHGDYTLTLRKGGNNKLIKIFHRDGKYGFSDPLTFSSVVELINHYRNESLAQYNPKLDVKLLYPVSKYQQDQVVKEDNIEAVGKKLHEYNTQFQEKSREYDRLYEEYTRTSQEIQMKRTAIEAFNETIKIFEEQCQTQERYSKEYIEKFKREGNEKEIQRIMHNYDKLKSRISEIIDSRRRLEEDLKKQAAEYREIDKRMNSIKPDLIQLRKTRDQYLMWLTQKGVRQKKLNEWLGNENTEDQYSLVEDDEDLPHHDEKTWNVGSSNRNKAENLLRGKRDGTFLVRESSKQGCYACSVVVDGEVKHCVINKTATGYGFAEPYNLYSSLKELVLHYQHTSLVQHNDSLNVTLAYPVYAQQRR
Structure (SMILES),IC50 (PI3Kα (p110α/p85α)),melting point,IC50 [1]
"CS(=O)(=O)N1CCN(Cc2cc3nc(-c4cccc5c4cnn5CCCCC(=O)NO)nc(N4CCOCC4)c3s2)CC1 [Compound 3, N-hydroxy-5-(4-(6-((4-(methylsulfonyl)piperazin-1-yl)methyl)-4-morpholinothieno[3,2-d]pyrimidin-2-yl)-1H-indazol-1-yl)pentanamide]",,139 to 143 °C,
"O=C(/C=C/c1ccc(NCc2cc3nc(-c4cccc5[nH]ncc45)nc(N4CCOCC4)c3s2)cc1)NO [Compound 80, (E)-3-(4-((2-(1H-indazol-4-yl)-4-morpholinothieno[3,2-d]pyrimidin-6-yl)methylamino)phenyl)-N-hydroxyacrylamide]",< 100 nM,> 300 °C,100 to 1000 nM
"O=C(CCCCN1CCN(Cc2cc3nc(-c4cccc5[nH]ncc45)nc(N4CCOCC4)c3s2)CC1)NO [Compound 11, 5-(4-((2-(1H-indazol-4-yl)-4-morpholinothieno[3,2-d]pyrimidin-6-yl)methyl)piperazin-1-yl)-N-hydroxypentanamide]",,125 to 127 °C,1000 to 10000 nM
CNc1ccc(-c2nc(N3CCOCC3)c3sc(CN(C)Cc4nc5cc(/C=C/C(=O)NO)ccc5n4C)cc3n2)cn1 [Compound 329],< 100 nM,,100 to 1000 nM
Nc1ccc(-c2nc(N3CCOCC3)c3sc(S(=O)(=O)NCC4CCN(c5ncc(C(=O)NO)cn5)CC4)cc3n2)cc1 [Compound 309],100 to 1000 nM,,100 to 1000 nM
CC(C)OC(=O)Nc1ccc(-c2nc(N3CCOCC3)c3sc(CN(C)c4ncc(C(=O)NO)cn4)cc3n2)cc1 [Compound 287],> 10000 nM,,< 100 nM
"COCCN(Cc1cc2nc(-c3cccc4[nH]ncc34)nc(N3CCOCC3)c2s1)c1ncc(C(=O)NO)cn1 [Compound 90, 2-(((2-(1H-indazol-4-yl)-4-morpholinothieno[3,2-d]pyrimidin-6-yl)methyl)(2-methoxyethyl)amino)-N-hydroxypyrimidine-5-carboxamide]",< 100 nM,,< 100 nM
Nc1ccc(-c2nc(N3CCOCC3)c3sc(CNCc4ccc(/C=C/C(=O)NO)cc4)cc3n2)cc1 [Compound 210],100 to 1000 nM,,100 to 1000 nM
CN(Cc1cc2nc(-c3cccc(C(=O)OC(C)(C)C)c3)nc(N3CCOCC3)c2s1)c1ncc(C(=O)NO)cn1 [Compound 304],1000 to 10000 nM,,< 100 nM

# Further lines, results first:
IC50 (PI3Kα (p110α/p85α)),melting point,IC50 [1],Structure (SMILES)
> 10000 nM,140 to 143 °C,< 100 nM,"CN(C)CCOc1ccc(-c2nc(N3CCOCC3)c3sc(CN(C)c4ncc(C(=O)NO)cn4)cc3n2)cn1 [Compound 257, 2-(((2-(6-(2-(Dimethylamino)ethoxy)pyridin-3-yl)-4-morpholinothieno[3,2-d]pyrimidin-6-yl)methyl)(methyl)amino)-N-hydroxypyrimidine-5-carboxamide]"
100 to 1000 nM,,< 100 nM,COCCN(CCOC)c1nc(-c2cccc3[nH]ncc23)nc2cc(CN(C)c3ncc(C(=O)NO)cn3)sc12 [Compound 163]
100 to 1000 nM,,< 100 nM,CC1COCC(C)N1c1nc(-c2cccc3[nH]ncc23)nc2cc(CN(C)c3ncc(C(=O)NO)cn3)sc12 (centres unmarked) [Compound 66]
> 10000 nM,,< 100 nM,COCCNc1nc(-c2cccc3[nH]ncc23)nc2cc(CN(C)c3ncc(C(=O)NO)cn3)sc12 [Compound 160]
100 to 1000 nM,,< 100 nM,CN(Cc1cc2nc(-c3cccc4[nH]ncc34)nc(N3CCCCC3)c2s1)c1ncc(C(=O)NO)cn1 [Compound 67]
< 100 nM,,< 100 nM,COc1ccc(-c2nc(N3CCOCC3)c3sc(NCCCCC(=O)NO)cc3n2)cn1 [Compound 230]
1000 to 10000 nM,,< 100 nM,CN(Cc1cc2nc(-c3cccc4[nH]ncc34)nc(N(CCO)CCO)c2s1)c1ncc(C(=O)NO)cn1 [Compound 162]
< 100 nM,,< 100 nM,O=C(NO)c1cnc(N(CCCO)Cc2cc3nc(-c4cccc5[nH]ncc45)nc(N4CCOCC4)c3s2)nc1 [Compound 91]

# — patent US20130102595A1 (Curis, Inc., priority 2011, published 2013)
